# Measured values published in US6713506B2, “Tea polyphenol esters and analogs thereof for cancer prevention and treatment” (University of South Florida, priority 2000, dated 2004).
# Key:
# [1] = molecular target: chymotrypsin-like activity of purified 20S proteasome; format: biochemical; details: read-out: IC50 towards the chymotrypsin-like activity of purified 20S proteasome
# Description: FIG. 8. […] A). […] Initially, 0.5 μg of purified 20S proteasome is incubated with 20 μM of a fluorogenic peptide substrate, Suc-Leu-Leu-Val-Tyr-AMC, for 30 min at 37° C. in 100 μl of assay buffer (20 mM Tris-HCl, pH 8.0) with various concentrations of tannic acid. After incubation, the reaction mixture is diluted to 200 μl with the assay buffer, followed by measurement of the hydrolyzed 7-amido-4-methyl-coumarin (AMC) groups using a fluorometer with an excitation filter of 380 nm and an emission filter of 460 nm. B). […] Tannic acid (0.3 μg/ml) and Glucose (180 μg/ml) are used in the proteasome activity assay as described above. C). […] Purified calpain I (3 μg) protein is incubated with 40 μM of a fluorogenic peptide substrate, Suc-Leu-Tyr-AMC, for 30 min at 37° C. in 100 μl of assay buffer (50 mM Tris-HCl, pH 7.5, containing 50 mM NaCl, 1 mM EDTA, 1 mM EGTA, 5 mM β-Mercaptoethanol, 5 mM CaCl2, and 0.1% CHAPS) in the absence (control) or presence of 5 μg/ml of tannic acid or 0.18 μg/ml of calpeptin (calpain inhibitor).
# Inhibition of the proteasome activity in vitro by tea polyphenols—To measure the 20S proteasome chymotrypsin-like activity, 0.5 μg of a purified 20S proteasome (Calbiochem) is incubated with 20 μM of a fluorogenic peptide substrate, Suc-Leu-Leu-Val-Tyr-AMC (Calbiochem), for 30 min at 37° C. in 100 μl of assay buffer (20 mM Tris-HCl, pH 8.0), with or without tea polyphenols (purity >95%; Sigma) or tea extract. After incubation, the reaction mixture is diluted to 200 μl with the assay buffer, followed by measurement of the hydrolyzed 7-amido-4-methyl-coumarin (AMC) groups using a VersaFluor™ Fluorometer with an excitation filter of 380 nm and an emission filter of 460 nm (Bio-Rad).
# [2] = molecular target: T1, proteasomal PGPH activity in Jurkat T cell extract (Homo sapiens, UniProt P28072); experiment: Proteasome PGPH activity in Jurkat T cell free extract; format: biochemical; details: EGCG 10 μM
# T1 construct: endogenous in cells; host or cells: Jurkat T cell whole cell extract
# Description: (§1) Inhibition of the proteasome activity with cell free extracts by tea polyphenols—The whole cell extract (3.5 μg) from Jurkat T cells is incubated for 90 min at 37° C. with 20 μM of a fluorogenic peptide substrate, Suc-Leu-Leu-Val-Tyr-AMC (for the chymotrypsin-like activity), Z-Leu-Leu-Glu-AMC [peptidyl-glutamyl peptide-hydrolyzing (PGPH) activity; Calbiochem], and Z-Gly-Gly-Arg-AMC (for the trypsin-like activity; Bachem), in 100 μl of the assay buffer with or without 10 μM EGCG or EGC. The hydrolyzed AMCs are quantified as described above.
# [3] = molecular target: T2, proteasomal trypsin-like activity in Jurkat T cell extract (Homo sapiens, UniProt Q99436); experiment: Proteasome trypsin-like activity in Jurkat T cell free extract; format: biochemical; details: EGCG 10 μM
# T2 construct: endogenous in cells; host or cells: Jurkat T cells (whole cell extract or intact cells)
# Description: as §1
# [4] = system: p27 and IκB-α in LNCaP cells; experiment: Western blot of proteasome substrates in LNCaP cells; format: cell-based, human; details: 1 or 10 μM, 12 h
# Description: FIG. 5. Western blot analysis. A, Jurkat T cells are treated with 1 or 10 μM of EGCG or EGC for 12 h, or B, C, 25 μM of EGCG for various times, followed by Western blot assay using specific antibodies to p27, IκB-α, ubiquitin or actin, as indicated. MWs of IκB-α and actin are 40 and 43 kDa, respectively. The band of 56 kDa, indicated by an arrow in (B), is an ubiquitinated or phosphorylated form of IκB-α. The bands indicated in (C) are ubiquitin-containing proteins. D, LNCaP cells are treated with 1 or 10 μM of EGCG for 12 h. Western bot is performed as described above. E, F, Jurkat T cells are pretreated with 10 μg/ml cycloheximide for 2 hr, followed by co-incubation with 1 or 10 μM of EGCG for 8 or 12 hr as indicated. The p70 is a putative ubiquitinated p27-containing complex (An et al., 1998, Cell Death Differ 5: 1062-75).
# Western blot analysis—Western blot assay is performed as described previously (An et al., (1998) Cell Death Differ 5(12), 1062-75) using specific antibodies to p27^Kip (monoclonal; Pharmingen), IκB-α (polyclonal; Santa Cruz), ubiquitin (polyclonal; Sigma) or actin (polyclonal; Santa Cruz). In brief, Jurkat T or LNCaP cells are treated with EGCG or EGC in dose-response or time-dependent manner. Cells are harvested and lysated using the whole lysis buffer. […] Immunocomplexes are detected using the ECL detection reagents kit (Amersham, Piscataway, N.J.).
# [5] = molecular target: T3, trypsin-like activity in living Jurkat T cells (Homo sapiens, UniProt Q99436); experiment: Proteasome trypsin-like activity in living Jurkat T cells; format: cell-based
# T3 construct: endogenous in cells; host or cells: Jurkat T cells (whole cell extract or intact cells)
# Description: Inhibition of the proteasome activity in living cells by tea polyphenols—To measure inhibition of the chymotrypsin-like activity in living tumor cells, Jurkat T (1×10^5 cells/ml/well), MCF7 or PC-3 cells (1×10^4 cells/ml/well) are cultured in 24-well plates. These cells are first incubated for 12 h with various concentrations of EGCG, EGC, β-lactone or LLnL, followed by an additional 2 h-incubation with fluorogenic peptide substrates, Suc-Leu-Leu-Val-Tyr-AMC for the chymotrypsin-like activity and Z-Gly-Gly-Arg-AMC for the trypsin-like activity. After that, cell medium (200 μl per sample) is collected and used for measurement of free AMCs.
# Chain of chymotrypsin-like activity of purified 20S proteasome (Q9P992 whole entry): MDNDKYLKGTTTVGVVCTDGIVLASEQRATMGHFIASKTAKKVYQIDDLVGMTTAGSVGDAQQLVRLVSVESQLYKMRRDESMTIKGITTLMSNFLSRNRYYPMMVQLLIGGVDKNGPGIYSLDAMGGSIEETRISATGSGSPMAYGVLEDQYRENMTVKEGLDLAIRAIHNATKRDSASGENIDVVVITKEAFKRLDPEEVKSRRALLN
Compound,IC50 [1] [mM],inhibition of proteasomal PGPH activity (in words) [2],effect on proteasomal trypsin-like activity (in words) [3],p27 and IκB protein expression [4],inhibition of trypsin-like activity in living Jurkat T cells (in words) [5]
"Oc1cc(O)c2c(c1)O[C@H](c1cc(O)c(O)c(O)c1)[C@H](O)C2 [EGC, (−)-epigallocatechin]",1.2,–,–,–,–
"O=C(O[C@@H]1Cc2c(O)cc(O)cc2O[C@@H]1c1cc(O)c(O)c(O)c1)c1cc(O)c(O)c(O)c1 [EGCG, (−)-epigallocatechin-3-gallate]",–,potently inhibits,does not affect,accumulated,does not significantly inhibit
